We go through four compounds from article PMC10132538, “Regulation of the two-pore domain potassium channel, THIK-1 and THIK-2, by G protein coupled receptors” (PLOS ONE, 2023).

One assay deals with T1, M1R (Homo sapiens, UniProt P11229).
T1 construct: expressed in transfected cells; host or cells: HEK293T
T1 sequence (P11229 1-460): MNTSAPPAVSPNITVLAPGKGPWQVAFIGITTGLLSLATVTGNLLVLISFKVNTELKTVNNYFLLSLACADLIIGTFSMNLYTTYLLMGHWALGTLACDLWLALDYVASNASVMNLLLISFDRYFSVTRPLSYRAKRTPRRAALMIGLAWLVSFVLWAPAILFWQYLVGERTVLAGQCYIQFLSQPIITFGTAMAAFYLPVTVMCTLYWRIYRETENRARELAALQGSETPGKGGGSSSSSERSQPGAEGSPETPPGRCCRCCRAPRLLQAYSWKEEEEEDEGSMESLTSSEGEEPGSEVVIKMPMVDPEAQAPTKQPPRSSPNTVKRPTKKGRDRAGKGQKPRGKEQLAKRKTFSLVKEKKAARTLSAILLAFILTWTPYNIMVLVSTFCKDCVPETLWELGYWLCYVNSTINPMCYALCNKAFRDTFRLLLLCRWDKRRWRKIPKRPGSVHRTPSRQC
Put plainly: M1R-induced increase of THIK-1 channel current, whole cell patch clamp in HEK293T cells. The class given is cell-based. The note with it: BAPTA 5 mM in pipette solution, n = 8. From the text: (§1) Coding region of mGu2 (M1-P840) was amplified by conventional PCR with designed primers and the resulting product was subcloned into pEYFP-N1 vector at the BglII and EcoRI sites. The cDNAs for mouse THIK-2 channel and dimeric THIK channels were subcloned into pcDNA3.1(-) vector. To increase the surface membrane expression of the THIK-2 channel, 29 residues (Ser2-Ser30) were removed (ΔN-THIK-2). […] Ci-VSP-IRES-GFP vector was kindly gifted by Dr. Y. Okamura (Osaka University, Osaka, Japan). HEK293T cells or CHO-K1 cells were seeded on glasses and transfected with the plasmid DNAs for THIK channels, receptors and a transfection marker of yellow fluorescent protein (YFP). Electrophysiological experiments were performed 24–72 h after the transfection. […] Pertussis toxin (PTX) was purchased from Wako (Osaka, Japan). […] All reagents were dissolved at high concentration and stored at -20 °C as the stock solutions. The stock reagent solution was diluted at concentrations for the electrophysiological experiments. PTX was solved in the culture medium (final concentration, 300 ng/mL) and cells were incubated in it for more than 16 h. U73122 or U73343 (final concentration, 2 μM each) was dissolved in Hanks’ Balanced Salt Solution (HBSS, Invitrogen, Carlsbad, CA, USA) supplemented with 1 mM Ca^2+ and 0.3 mM Mg^2+. Cells were incubated in HBSS with U73122 or U73343 for 10 min at room temperature before the whole cell current recording.
(§2) Composition of bath solution was (in mM) 140 NaCl, 4 KCl, 1 CaCl2, 0.3 MgCl2, 10 HEPES (pH 7.4 adjusted with NaOH). The pipette solution for whole cell patch clamp experiments contained (mM) 130 KCl, 5 Na2-ATP, 3 EGTA, 0.1 CaCl2, 10 HEPES, 4 MgCl2, (pH 7.3 adjusted with KOH). GTP (0.3 mM) was supplemented in the pipette solution. Once the whole cell configuration was established, the cell was held at -80mV and ramp pulses (-120mV to +40mV for 0.4 sec) were applied every 5 sec. Various concentrations of the agonists were applied using a fast perfusion system (VC77SP, Warner Instruments, Hamden, CT, USA). The PKC inhibitor chelerythrine was included in the pipette solution.
(§3) The amplitude of the THIK-1 channel current at 0 mV was measured from every trace induced by the ramp pulse protocol to minimize the fraction of non-selective cationic leak current. The current amplitude before the agonist application was set as the basal current amplitude (I0). The effects of GPCRs on the THIK-1 channel were evaluated as the ratio of the current amplitude after the agonist application to I0 (Iagonist/I0). The EC50 values were estimated by fitting the concentration response curve to a Hill equation (Origin2016; OriginLab, Northampton, MA, USA). […] The effects of A2aR on the Gi/o-R-induced current increase of the THIK-1 channel was estimated as follows. […] All data are shown as means and S.D. The statistical significance between two or more than two groups was estimated by unpaired Student’s t-test or by a one-way analysis of variance (ANOVA) followed by Tukey’s test, respectively. […] Values of p≤ 0.05 were considered as statistically significant (***:p≤0.001, **:0.001<p≤0.01, *:0.01<p≤0.05, n.s.:p>0.05).
In general terms: In patch-clamp work, channel activity is measured electrically.

For assay [1], the system named is endogenously expressed channels in HEK293T cells. In words: Effect of receptor stimulation on the endogenous current in HEK293T cells without THIK-1. The note with it: HEK293T transfected with GABABR, no THIK-1. In kind it is cell-based. The source says: The amplitude of the current increase at the 15th trace (ΔI15th) after the application of GABA or oxo-M were normalized to that at the 5th traces (ΔI5th) with or without additional activation of A2aR (ΔI15th/ΔI5th).
The current density at 0 mV (I0) in HEK293T cell transfected with indicated receptors and the effects of the receptor stimulation are shown as Mean and S.D.

Assay [2] deals with intracellular cAMP (Gs signaling, A2aR). In words: Intracellular cAMP, FRET based cAMP indicator in HEK293T cells. In kind it is cell-based. The note with it: NECA 10 μM. The procedure: HEK293T cells were culture on the glass bottom dishes and transfected with cDNAs for FRET based cAMP indicators and A2aR. […] transfection, cells were incubated in bath solution containing (mM) 140 NaCl, 1 CaCl2, 4 KCl, 0.3 MgCl2, 10 HEPES (pH was adjusted to 7.4 with NaOH) and fluorescent signals were acquired as previously described. CFP was excited by 442 nm laser line and emitted light was passed through S470/30 and S535/30 filters (Chroma), respectively. The fluorescence images were then amplified by an image intensifier unit (C8600, Hamamatsu Photonics) and recorded every 5 s using a cooled CCD camera (Qimage Retiga 6000, Roper Scientific). A laser switching controller (Olympus) was operated by using MetaFluor imaging software (Universal Imaging). The fluorescent intensities of CFP and YFP upon the CFP excitation were measured from fluorescent cells and cell free background.
Time dependent changes of the FRET efficiency of the FRET based cAMP indicator (FFRET/FCFP) are shown. Black bars show the application of the reagents, which was carried out by perfusion of the chamber (0.2-0.3 mL bath volume) with bath solution (1 mL) containing the reagent. […] The decrease in FRET were thought to be caused by the activation of the endogenous A2aR (Fig. S2E). Symbols show mean and SD.

A further assay concerns THIK-1 channel. In words: Basal current (I0) density of THIK-1 channel at 0 mV in HEK293T cells. The class given is cell-based. The settings on record: 0 mV, before agonist.
Description: as §1, §2, §3

A further assay deals with T2, mGlu1 (Homo sapiens, UniProt Q13255).
T2 construct: expressed in transfected cells; host or cells: HEK293T
Put plainly: mGlu1-induced increase of THIK-1 channel current, whole cell patch clamp in HEK293T cells. In kind it is cell-based. The settings on record: 2 μM for 10 min; glutamate 1 mM.
Description: as §1, with “PTX was solved in the culture medium (final concentration, 300 ng/mL) and cells were incubated in it for more than 16 h. U73122 or U73343 (final concentration, 2 μM each) was dissolved in Hanks’ Balanced Salt Solution (HBSS, Invitrogen, Carlsbad, CA, USA) supplemented with 1 mM Ca^2+ and 0.3 mM Mg^2+. Cells were incubated in HBSS with U73122 or U73343 for 10 min at room temperature before the whole cell current recording.” left out
The amplitude of the THIK-1 channel current at 0 mV was measured from every trace induced by the ramp pulse protocol to minimize the fraction of non-selective cationic leak current. […] The effects of GPCRs on the THIK-1 channel were evaluated as the ratio of the current amplitude after the agonist application to I0 (Iagonist/I0). […]

Assay [3] deals with T3, M1R-YFP / ΔN-THIK-2 channel (Homo sapiens, UniProt P11229).
T3 construct: expressed in transfected cells; host or cells: CHO-K1
T3 sequence (P11229 1-460): T1 sequence (P11229 1-460)
Put plainly: M1R-YFP-induced increase of ΔN-THIK-2 channel current in CHO-K1 cells. The class given is cell-based, mouse. The settings on record: oxo-M 10 μM.
Description: as §1, with “Cells were incubated in HBSS with U73122 or U73343 for 10 min at room temperature before the whole cell current recording.” left out

T2 sequence (Q13255 19-1194): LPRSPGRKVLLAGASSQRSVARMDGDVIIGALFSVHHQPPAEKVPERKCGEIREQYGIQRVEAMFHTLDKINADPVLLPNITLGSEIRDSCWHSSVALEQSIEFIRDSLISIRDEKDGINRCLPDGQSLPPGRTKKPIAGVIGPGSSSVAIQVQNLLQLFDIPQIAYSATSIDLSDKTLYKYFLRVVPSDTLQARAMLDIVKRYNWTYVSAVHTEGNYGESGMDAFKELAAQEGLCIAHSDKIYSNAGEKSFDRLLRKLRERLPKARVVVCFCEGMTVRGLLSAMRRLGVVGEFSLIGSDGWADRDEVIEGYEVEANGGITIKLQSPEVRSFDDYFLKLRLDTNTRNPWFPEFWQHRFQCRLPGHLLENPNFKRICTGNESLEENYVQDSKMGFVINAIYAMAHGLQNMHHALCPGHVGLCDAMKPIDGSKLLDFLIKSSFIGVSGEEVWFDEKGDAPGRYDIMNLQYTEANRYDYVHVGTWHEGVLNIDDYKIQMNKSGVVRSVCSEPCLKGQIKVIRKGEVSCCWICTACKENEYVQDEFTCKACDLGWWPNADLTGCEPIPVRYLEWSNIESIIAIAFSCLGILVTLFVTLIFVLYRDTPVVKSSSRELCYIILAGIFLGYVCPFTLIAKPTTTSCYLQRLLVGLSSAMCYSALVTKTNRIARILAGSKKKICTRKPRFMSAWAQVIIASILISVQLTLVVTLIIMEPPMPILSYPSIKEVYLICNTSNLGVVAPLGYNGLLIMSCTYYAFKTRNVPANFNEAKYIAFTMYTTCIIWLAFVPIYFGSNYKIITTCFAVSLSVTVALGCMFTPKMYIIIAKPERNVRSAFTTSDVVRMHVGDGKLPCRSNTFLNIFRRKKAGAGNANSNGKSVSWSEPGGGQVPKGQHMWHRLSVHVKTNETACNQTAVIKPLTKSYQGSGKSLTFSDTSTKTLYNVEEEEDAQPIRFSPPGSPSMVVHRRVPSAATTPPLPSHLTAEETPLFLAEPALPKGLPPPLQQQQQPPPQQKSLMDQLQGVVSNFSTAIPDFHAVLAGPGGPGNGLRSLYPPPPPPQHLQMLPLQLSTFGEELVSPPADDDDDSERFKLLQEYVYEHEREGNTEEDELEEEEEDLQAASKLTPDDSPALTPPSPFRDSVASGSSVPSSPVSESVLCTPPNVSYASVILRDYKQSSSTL

`O=C(O)CN(CC(=O)O)c1ccccc1OCCOc1ccccc1N(CC(=O)O)CC(=O)O` [BAPTA]: the “effect of the M1R activation (Iagonist/I0)” value at M1R amounted to 3.0 ± 1.0.

For the compound `NCCCC(=O)O` [GABA], in assay [1], the “Effect of agonist (Iagonist/I0)” value is listed as 1.03 ± 0.06.

Take `CCNC(=O)[C@H]1O[C@@H](n2cnc3c(N)ncnc32)[C@H](O)[C@@H]1O` [NECA, 5’-N-ethylcarboxamidoadenosine]: the “Gs signaling (cAMP indicator)” value in assay [2] (HEK293T transfected with heterologous A2aR) is given as “fully activated”. Besides, the “intracellular cAMP” value in assay [2] (HEK293T without heterologous A2aR (endogenous A2aR), effect partial) is “increased the intracellular cAMP”.

With `COc1ccc2c(c1)CC[C@@H]1[C@@H]2CC[C@]2(C)[C@@H](NCCCCCCN3C(=O)C=CC3=O)CC[C@@H]12` [U73122], the “Basal current (I0) density of THIK-1 channel” value in the assay with THIK-1 channel (THIK-1 + M1R, PLC reagent 2 μM 10 min) is on record as 35.7 ± 34.7 (9)^n.s pA/pF; in the assay on THIK-1 channel (THIK-1 + M3R, PLC reagent 2 μM 10 min), 99.2 ± 117.3 (7)^n.s pA/pF; with THIK-1 channel (THIK-1 + mGlu1, PLC reagent 2 μM 10 min), 112.2 ± 121.4 (10)^n.s pA/pF. The “effect of mGlu1 on THIK-1 current after PLC reagent” value at mGlu1 is on record as “inhibited”. In addition, the “effect of M1R-YFP on ΔN-THIK-2 channel after PLC reagent” value in assay [3] is “inhibited”.
